The text below walks through data of PubChem BioAssay (NCI).

Several values for one entry are separate records, joined by “and”; a condition that tells them apart may be missing. Equal entries are not always repeated.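 Growth conditions: 96-well plates. Treatment: test compound, 48 hours, 5 concentrations. Analysis: linear interpolation between bracketing concentrations; unreached endpoints set to highest concentration. Here, GI50 denotes the concentration required for 50% inhibition of growth. TGI denotes the concentration required for complete inhibition of growth.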

Some test systems named below: 786-0 renal; A549 NSCLC; ACHN renal; CAKI-1 renal; EKVX NSCLC; NCI-H23 lung; RPMI-8226 leukemia; SF-295 CNS; SNB-19 CNS; SNB-78 CNS.
Assay in all cases: NCI-60 cell line screen, 48 h

Turning to `Cc1c(C(=O)CC(=O)C(=O)NC2C3CC4CC(C3)CC2C4)[n+](=O)c2ccccc2n1[O-]` (configuration not stated), the TGI with 786-0 renal, in the assay on A549 NSCLC, in the assay on ACHN renal, in the assay on CAKI-1 renal, in the assay with EKVX NSCLC and with NCI-H23 lung was more than 100 µM throughout. In addition, the TGI in the assay with RPMI-8226 leukemia, with SF-295 CNS, in the assay on SNB-19 CNS and in the assay with SNB-78 CNS was more than 100 µM each time.

As for `[Cl][Sn]([c]1ccccc1)[c]1ccccc1`, the GI50 in the assay on 786-0 renal was 3.79 µM; in the assay on A549 NSCLC, 17.5 µM; in the assay on ACHN renal, 11.9 µM; in the assay on CAKI-1 renal, 2.54 µM; in the assay with EKVX NSCLC, 6.57 µM; in the assay on NCI-H23 lung it was 5.19 µM. Besides, the GI50 was 2.09 µM with RPMI-8226 leukemia, 19.2 µM in the assay on SF-295 CNS, 11.6 µM with SNB-19 CNS and 6.96 µM in the assay on SNB-78 CNS. For the same compound, the TGI in the assay with 786-0 renal is 12.8 µM; with A549 NSCLC, 36.2 µM; with ACHN renal, 24.2 µM; in the assay with CAKI-1 renal, 8.98 µM; in the assay with EKVX NSCLC, 15.5 µM; in the assay on NCI-H23 lung it was 18.1 µM. Besides, the TGI with RPMI-8226 leukemia came to 6.14 µM; in the assay on SF-295 CNS, 35.2 µM; in the assay on SNB-19 CNS it was 23.8 µM; in the assay with SNB-78 CNS it was 31 µM.

As for `O=c1oc2c3ccc4ccccc4c3n(Cc3nc4ccccc4[nH]3)c2c2ccccc12`, the TGI with 786-0 renal was more than 47.9 µM; in the assay on A549 NSCLC, more than 100 µM; with ACHN renal, more than 100 µM; in the assay on CAKI-1 renal, more than 100 µM; with EKVX NSCLC, more than 31.6 µM; in the assay with NCI-H23 lung, more than 100 µM. Also, the TGI in the assay with RPMI-8226 leukemia, in the assay on SF-295 CNS, in the assay with SNB-19 CNS and with SNB-78 CNS was more than 100 µM in each case.

In the case of `CCCCS(=N)(=O)CC[C@H](N)C(=O)O` (some centres not stated), the TGI is 434 µM and > 2460 µM in the assay on 786-0 renal; more than 10000 µM in the assay on A549 NSCLC; more than 10000 µM with ACHN renal; 5000 µM and > 1330 µM in the assay on CAKI-1 renal; 1720 µM and 3890 µM with EKVX NSCLC; 5000 µM and > 10000 µM in the assay with NCI-H23 lung. Further, the TGI was 4730 µM and > 10000 µM in the assay on RPMI-8226 leukemia; more than 10000 µM with SF-295 CNS; more than 10000 µM with SNB-19 CNS; more than 5000 µM with SNB-78 CNS. The GI50 with A549 NSCLC is more than 8030 µM; in the assay with ACHN renal, more than 10000 µM; with CAKI-1 renal it was more than 1080 µM; with EKVX NSCLC it was 615 µM; in the assay on NCI-H23 lung, more than 10000 µM; with RPMI-8226 leukemia, more than 8560 µM. The GI50 in the assay with SNB-19 CNS was more than 10000 µM.

Turning to `c1cncc(C2c3[nH]c4ccccc4c3CCN2CCN2CCCCC2)c1` (configuration not stated), the TGI with 786-0 renal, in the assay on A549 NSCLC, with ACHN renal, in the assay with CAKI-1 renal, with EKVX NSCLC and with NCI-H23 lung was more than 100 µM each time. Moreover, the TGI in the assay with RPMI-8226 leukemia, in the assay on SF-295 CNS, in the assay on SNB-19 CNS and in the assay on SNB-78 CNS was more than 100 µM each time.

On to `Cn1nnnc1[N-]Cc1ccccc1.[Au+].c1ccc([PH+](c2ccccc2)c2ccccc2)cc1`, for which the GI50 in the assay with 786-0 renal was 1.71 µM; in the assay on A549 NSCLC, 21.2 µM; in the assay on ACHN renal, 4.29 µM; in the assay with CAKI-1 renal it was 2.29 µM; with EKVX NSCLC, 4.08 µM; in the assay on NCI-H23 lung, 3.35 µM. Moreover, the GI50 in the assay with RPMI-8226 leukemia is 1.23 µM; with SF-295 CNS, 4.45 µM; in the assay on SNB-19 CNS, 3.61 µM; in the assay on SNB-78 CNS it was 6.86 µM. For the same compound, the TGI worked out at 3.37 µM in the assay on 786-0 renal; 71.3 µM in the assay with A549 NSCLC; 10.6 µM in the assay on ACHN renal; 4.99 µM in the assay on CAKI-1 renal; 5.78 µM in the assay with EKVX NSCLC; 10.4 µM with NCI-H23 lung. For the same compound, the TGI was 4.37 µM with RPMI-8226 leukemia, 22.8 µM with SF-295 CNS, 13.1 µM in the assay with SNB-19 CNS and more than 66.9 µM with SNB-78 CNS.

Regarding `CC1=C(N2CC2)C(=O)c2nc3n(c2C1=O)CCC3O` (configuration not stated), the TGI came to 0.967 µM with 786-0 renal; 1.49 µM in the assay with A549 NSCLC; 1.61 µM in the assay with ACHN renal; 0.777 µM in the assay on CAKI-1 renal; 1.13 µM in the assay with EKVX NSCLC; 0.262 µM with NCI-H23 lung. The TGI in the assay with RPMI-8226 leukemia came out at 10.2 µM; in the assay with SF-295 CNS, 0.512 µM; in the assay on SNB-19 CNS it was 0.97 µM; with SNB-78 CNS, 0.131 µM.

Regarding `CC(O)C(NC(=O)C(CS)NC(=O)C(CO)NC(=O)C(CCCCN)NC(=O)C(Cc1c[nH]c2ccccc12)NC(=O)C(Cc1ccc(O)cc1)NC(=O)C(CS)NC(=O)C(N)Cc1ccccc1)C(N)=O` (configuration not stated), the TGI in the assay with 786-0 renal was > 25 µM and 79 µM; in the assay on A549 NSCLC it was > 25 µM and 51.6 µM; in the assay with ACHN renal it was > 25 µM and 44.5 µM; in the assay on CAKI-1 renal, > 25 µM and 29.6 µM; with EKVX NSCLC it was > 25 µM and 83.9 µM; in the assay on NCI-H23 lung it was > 25 µM and 68 µM. The TGI in the assay with RPMI-8226 leukemia was > 25 µM and 47.8 µM; with SF-295 CNS, more than 25 µM; with SNB-19 CNS it was 63.4 µM; in the assay on SNB-78 CNS, 96 µM. Also, the GI50 in the assay on A549 NSCLC is 18.7 µM; in the assay on ACHN renal it was 20.5 µM; in the assay with CAKI-1 renal, 1.08 µM; with EKVX NSCLC, 36.1 µM; with RPMI-8226 leukemia, 22.3 µM.

With `Nc1ccc2c(c1)[O][Sn]([c]1ccccc1)([c]1ccccc1)[O]C2=O`, the GI50 was 3.79 µM in the assay on 786-0 renal; 4.61 µM in the assay with A549 NSCLC; 11.9 µM with ACHN renal; 4.89 µM in the assay with CAKI-1 renal; 10.6 µM in the assay with EKVX NSCLC; 2.76 µM in the assay on NCI-H23 lung. The GI50 in the assay with RPMI-8226 leukemia was 2.5 µM; in the assay with SF-295 CNS, 6.38 µM; with SNB-19 CNS, 17.3 µM; in the assay with SNB-78 CNS, 5.31 µM. For the same compound, the TGI with 786-0 renal was found to be 7.95 µM; with A549 NSCLC it was 15.9 µM; in the assay with ACHN renal, 25.4 µM; in the assay on CAKI-1 renal it was 10.5 µM; in the assay with EKVX NSCLC, 25 µM; with NCI-H23 lung, 8.58 µM. The TGI with RPMI-8226 leukemia stood at 10.7 µM; in the assay with SF-295 CNS, 14.5 µM; in the assay with SNB-19 CNS, 31.3 µM; in the assay with SNB-78 CNS, 23.4 µM.

`CC(C)(C)N=CN1CCC(C(c2ccccc2)c2ccccc2)CC1`: the TGI with 786-0 renal, in the assay with A549 NSCLC, in the assay on ACHN renal, with CAKI-1 renal, in the assay on EKVX NSCLC and with NCI-H23 lung was more than 100 µM throughout. For the same compound, the TGI with RPMI-8226 leukemia, in the assay with SF-295 CNS, in the assay on SNB-19 CNS and in the assay on SNB-78 CNS was more than 100 µM in each case.

Take `CCOC(=O)C(=O)Nc1c(C)cccc1CC`: the TGI in the assay on 786-0 renal, in the assay with A549 NSCLC, in the assay on ACHN renal, in the assay on CAKI-1 renal, with EKVX NSCLC and in the assay on NCI-H23 lung was more than 100 µM throughout. The TGI with RPMI-8226 leukemia, in the assay on SF-295 CNS, in the assay on SNB-19 CNS and in the assay on SNB-78 CNS was more than 100 µM throughout.

Turning to `COC(=O)c1ccc(OCc2ccc3oc(=O)c(-c4ccccc4)nc3c2)cc1`, the TGI in the assay with 786-0 renal is 66.5 µM; in the assay on A549 NSCLC, more than 100 µM; in the assay with ACHN renal, more than 100 µM; in the assay with CAKI-1 renal, more than 100 µM; in the assay on EKVX NSCLC, more than 100 µM; in the assay on NCI-H23 lung, more than 100 µM. Further, the TGI in the assay with RPMI-8226 leukemia, with SF-295 CNS, in the assay with SNB-19 CNS and in the assay on SNB-78 CNS was more than 100 µM each time.

Consider `CCOC(=O)/C=C(/CN1C(=O)c2ccccc2C1=O)c1ccccc1`, for which the TGI in the assay with 786-0 renal, with A549 NSCLC, in the assay on ACHN renal, in the assay on CAKI-1 renal, in the assay with EKVX NSCLC and in the assay on NCI-H23 lung was more than 100 µM in each case. The TGI in the assay on RPMI-8226 leukemia, with SF-295 CNS, in the assay on SNB-19 CNS and in the assay with SNB-78 CNS was more than 100 µM each time.
